Test results from patent publication US20100227401A1, “MEDIA AND PROCESSES FOR THE EX VIVO PRODUCTION OF MEGAKARYOCYTES FROM HUMAN CD34+ CELLS” (FOOD INDUSTRY RESEARCH AND DEVELOPMENT INSTITUTE, priority 2003, published 2010).

Assays:
[1] = system: serum-free expanded CD34^+ cells; assay: Ex vivo Mk induction from serum-free expanded CD34+ cells, 1-week induction, TNC count and Mk count (CD41a+CD61+); format: cell-based, human; conditions: preliminary screening of serum substitutes (data not shown)
Procedure: Each experiment was repeated at least four times. […] (1978), Statistics for Experimenters: An Introduction to Design, Data Analysis, and Model Building, Wiley, New York). In addition, the statistical significance was determined by an F-test, and the significance of the regression coefficient was analyzed by a t-test. […] After cultivation for 1 week, the cells were collected and subjected to the TNC count as described above and a megakaryocyte count (Mk count) so as to evaluate the ex vivo megakaryocytopoietic effects of the tested serum substitutes and cytokines. The Mk count was conducted by labeling the collected cells with CD41a-FITC and CD61-PE and analyzed according to the operating procedure described in the following section, entitled “4. […] The incubation was terminated by washing three times with 1 mL FACS buffer. Optionally, the first antibody-labeled cells were further incubated with a second antibody conjugated with PE or FITC in the same manner. After washing with FACS buffer, the labeled cells were resuspended in 1 mL FACS buffer and analyzed on a FACSCalibur analyzer (Becton-Dickinson, NJ, USA). The data were analyzed by CellQuest software. A replicate sample incubated with FITC- or PE-conjugated mouse IgG1 was used as an isotype control for specificity. […] SF-Mk as established in Example 1, IMDM+10% FBS, IMDM+2% FBS, […]-VIVO 10, X-VIVO 15, X-VIVO 20,[…], DMEM, RPMI 1640, α-MEM, BME medium, […] medium, and Medium 199, respectively. IMDM+10% FBS, IMDM+2% FBS, […]-VIVO 10, X-VIVO 15, X-VIVO 20,[…], DMEM, RPMI 1640, α-MEM, BME medium, […] medium and Medium 199 were respectively supplemented with the cytokine cocktail (CC) as screened in Example 1. […] After 1-week induction, the Mk number of each group was calculated. […] IMDM supplemented with a serum substitute consisting of 4.9 g/L BSA, 2.72 μg/mL insulin, and 80 μg/mL transferrin (based on the applicants' previous study, unpublished data) and the reference cytokine cocktail as previously reported in Te-Wei Chen et al. (2009), supra; and • (3) FBS group: IMDM supplemented with 10% FBS and the reference cytokine cocktail.

[2] = system: hematopoietic progenitor cells (HPCs); conditions: cited from earlier work
CD34^+-selected cells = conditions: PMP 200 ng/mL; TPO 10 ng/mL, IL-3 10 ng/mL; cited from earlier work
[3] = mpIL added to growth factor cocktail

NC(=O)CC[C@H](N)C(=O)O [L-glutamine]
effect on ex vivo megakaryocytopoiesis [1]: no effect

OCCS [Step 2-ME, 2-mercaptoethanol]
effect on ex vivo megakaryocytopoiesis [1]: no effect

CC(=O)C(=O)[O-].[Na+] [sodium pyruvate]
effect on ex vivo megakaryocytopoiesis [1]: no effect

insulin
effect on ex vivo megakaryocytopoiesis [1]: significantly positive effects

mpIL: recombinant mpl ligand
Mk purity level [2, 3]: 80% | final yield of Mks [2, 3]: 4×10^5 | cell number ([2]; mpIL alone): 1.5×10^5 cells

promegapoietin [PMP]
megakaryocytopoietic activity (CD34^+-selected cells): comparable to that achieved with TPO plus IL-3

transferrin
effect on ex vivo megakaryocytopoiesis [1]: significantly positive effects
